According to patent US7375078B2, “Heterocyclic self-immolative linkers and conjugates” (Genentech, Inc., priority 2004, dated 2008):

Molecular target: T1, cathepsin B (Homo sapiens, UniProt P07858)
T1 construct: purchased CalBiochem
Experiment: Cathepsin B cleavage of 7A and 7B
Format: biochemical
Details: substrate 100 μM, activated cathepsin B 100 nM, 50 mM sodium acetate buffer pH 5, 37° C., 16 hrs, presence or absence of 1 mM cysteine; HPLC
Procedure: Model compounds with a cleavable peptide unit and a heterocyclic self-immolative moiety, and conjugates of Formula I can be tested for stability and kinetics of enzymatic hydrolysis by the methods of de Groot, et al (1999) J. Med. Chem. 42(25):5277-5283.
FIG. 2 is a schematic representation of the cleavage mechanism.
A cathepsin B (CalBiochem) stock solution at 28.4 μM was diluted to 1 μM in 50 mM sodium acetate buffer pH 7.5, containing 2 mM DTT. Activation was carried out at 37° C. for 15 minutes.
Substrate compounds 7A and 7B were diluted to 100 μM in 50 mM sodium acetate buffer pH 5. Activated cathepsin B was added to a final concentration of 100 nM and the cleavage reaction was carried out at 37° C. for 16 hrs in the presence or absence of 1 mM cysteine.
Reversed-phase separation of cleavage products was carried out using an Agilent 1100 HPLC system. UV signal was monitored at 214, 254 and 380 nm. A Poroshell 300SB-C18 column (No.660750-902) from Agilent was used. Mobile phases A and B contained 0.05% TFA aqueous solution and CH3CN containing 0.05% TFA, respectively. […] The cleavage product of 4-nitroaniline was monitored by its distinct absorbance at 380 nm in the void volume. […]

| SMILES | cleavage reaction (disappearance of substrate, release of 4-nitroaniline) |
| --- | --- |
| CC(C)[C@@H](NC(=O)OC(C)(C)C)C(=O)N[C@H](CCCNC(N)=O)C(=O)Nc1nc(C(F)(F)F)c(COC(=O)Nc2ccc([N+](=O)[O-])cc2)s1 [Compound 7A] | complete |
| CC(C)[C@@H](NC(=O)CCCCCN1C(=O)C=CC1=O)C(=O)N[C@H](CCCNC(N)=O)C(=O)Nc1nc(C(F)(F)F)c(COC(=O)Nc2ccc([N+](=O)[O-])cc2)s1 [Compound 7B] | complete |
